{"source": "patent US20170051249A1", "about": "“MANIPULATION OF OVARIAN PRIMORDIAL FOLLICLES” (The Board of Trustees of the Leland Stanford junior …, priority 2009, published 2017)", "key": {"[1]": {"system": "Foxo3 nuclear export in primordial oocytes", "test": "Foxo3 nuclear export in primordial follicles of human ovarian cortical cubes", "type": "cell-based", "conditions": "1 h treatment, 100 uM", "protocol": "(§1) Informed consent from the patient and approval from the Human Subject Committee of Akita University were obtained. Ovarian cortex was isolated and cut into small cubes (˜1 mm^3). After treatment of cortical cubes for 1 h with bpV(pic), some samples were used for immunohistochemical staining for Foxo3. Some ovarian cubes were also cultured in MEM-a medium containing 10% human serum albumin (Mitsubishi Tanabe Pharma Corp, Osaka, Japan), 1% antibiotic/antimycotic solution (Invitrogen), and 0.3 IU/ml FSH. Pairs of cortical cubes were treated with bpV(pic) ([…]) or saline for 24 h before xeno-transplantation into each side of the kidney capsule of ovariectomized, immune-deficient SCID mice. An i.p. injection of antibiotic (4 μg/g body weight; gentamicin; Invitrogen) was given while animals were anesthetized by 2,2,2-tribromoethanol (0.4 mg/g body weight; avertin; Sigma). Three day after transplantation, animals were treated i.p. with FSH (1 IU/animal) every 48 h for 24 weeks. At 36 h before sample retrieval, hCG (20 IU/animal) was injected subcutaneously. Ovarian grafts were recovered for histological analyses and follicle counting."}, "PTEN": {"target": "PTEN (Homo sapiens, UniProt P60484)", "sequence (P60484 whole entry)": "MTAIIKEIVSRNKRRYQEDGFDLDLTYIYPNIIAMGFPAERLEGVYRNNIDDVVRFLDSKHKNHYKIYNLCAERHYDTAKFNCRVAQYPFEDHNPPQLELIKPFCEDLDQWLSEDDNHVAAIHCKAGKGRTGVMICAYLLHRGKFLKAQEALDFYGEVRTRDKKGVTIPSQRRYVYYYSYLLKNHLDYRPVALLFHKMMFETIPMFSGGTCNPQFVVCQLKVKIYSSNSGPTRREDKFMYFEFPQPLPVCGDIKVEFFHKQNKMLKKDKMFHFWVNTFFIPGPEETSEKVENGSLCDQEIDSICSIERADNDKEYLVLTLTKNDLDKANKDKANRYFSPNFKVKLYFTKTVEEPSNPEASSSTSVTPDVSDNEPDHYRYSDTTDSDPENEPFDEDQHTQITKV", "conditions": "in vitro, known inhibitors; read-out: IC50 for inhibition of PTEN; cited from earlier work"}, "[2]": {"system": "dormant primordial follicles of neonatal ovaries", "test": "Transient in vitro exposure of neonatal mouse ovaries to PTEN inhibitor, kidney capsule transplantation into ovariectomized FSH-treated hosts, histology (Examples 2 and 3)", "type": "in vivo", "protocol": "Ovaries fixed for at least 24 h are dehydrated, embedded in paraffin, and serially sectioned at 5 μm intervals. The sections are mounted on glass slides and stained with Mayers hematoxylin and eosin. Follicles are counted using the dissector and fractionator principles (see Mayhew et al. (1991) Exp Physiol 76:639-65). Every fifth section of each ovary is used for analysis. Follicle stages are determined based on the classification used by Flaws et al. (1997) Biol. Reprod. 57:1233-1237. Follicles are assessed blindly and confirmed by two investigators. Data is expressed as percentage of follicle per ovary.\nFollicles are identified as healthy if they contained an intact oocyte, organized granulosa and thecal cell layers, and no pyknotic bodies. Follicles are considered atretic if they contain a degenerating oocyte, disorganized granulosa cells with pyknotic nuclei or apoptotic bodies. Follicles will be scored as “primordial” if they contain an intact oocyte with a visible nucleolus surrounded by a single layer of fusiform-shaped granulosa cells. Follicles are scored as “primary” if they consist of an intact, enlarged oocyte with a visible nucleolus and a single layer of cuboidal granulosa cells. Follicles are scored as preantral if they contain an oocyte with a visible nucleolus and more than one layer of granulosa or thecal cells. To obtain an estimate of the total number of follicles per ovary, the number of primordial, primary, and preantral follicles are multiplied by 5 to account for the fact that every fifth section was used for analyses. Statistical analysis of follicle number is performed using Sigmastat statistical software v.2 (Jandel Corporation, San Rafael, Calif., USA).\nTransient incubation of neonatal ovaries in vitro with bpV(pic) may avoid the adverse side effects of the PTEN inhibitor in vivo to allow a tissue-specific action of the inhibitor. After treatment using the PTEN inhibitor, ovaries are transplanted into adult hosts. To facilitate follicle growth, adult recipients are ovariectomized to increase endogenous gonadotropin levels. […]"}, "[3]": {"system": "human primordial follicles", "test": "Human follicle activation: cortical cubes treated in vitro, xeno-transplanted into kidney capsule of ovariectomized SCID mice, follicle counting", "type": "in vivo", "protocol": "as §1"}, "PTP": {"system": "PTP", "conditions": "read-out: IC50 as PTP inhibitor; cited from earlier work"}, "[4]": {"conditions": "antral follicles of four grafts, after hCG"}}}
{"compound": "O.O.O=C([O-])c1ccccn1.OO.OO.[K+].[K+].[OH-].[V]", "note": "[bpV(pic), dipotassium bisperoxo(picolinato)oxovanadate (V)]", "values": [{"measurement": "increase in nuclear exclusion of Foxo3 versus controls", "setting": "[1]", "value": 2, "unit": "fold"}, {"measurement": "IC50", "setting": "PTEN", "value": 31, "unit": "nM"}, {"measurement": "ovarian size as compared with control ovaries", "setting": "[2]; 100 μM for 24 h in vitro, twelve days after transplantation", "value": "clear increases in sizes"}, {"measurement": "decrease of the percentage of primordial (Pmd) follicles as compared to controls", "setting": "[2]; 250 uM for 6 h in vitro, day 3 Balb/c ovaries, transplanted, FSH 12 days, preliminary analysis, three pairs of ovaries", "value": 60, "unit": "%"}, {"measurement": "effect on follicle development and nuclear maturation of the preovulatory oocyte", "setting": "[2]; 6 h in vitro exposure, 15 days after transplantation, hCG 8 h", "value": "did not cause detrimental effects"}, {"measurement": "follicles that left the dormant primordial pool and developed into larger follicles", "setting": "[3]; 24 h treatment (100 mM), after transplantation, FSH 24 weeks", "value": 89, "unit": "%"}, {"measurement": "graft size as compared with controls", "setting": "[3]; 24 h treatment, 6 months after xeno-transplantation", "value": "major increases in graft sizes"}, {"measurement": "increases in the number of secondary and antral follicles", "setting": "[3]; 24 h treatment, after xeno-transplantation", "value": "~4", "unit": "fold"}, {"measurement": "number of oocytes at GV stage", "setting": "[3]; [4]", "value": 5}, {"measurement": "number of oocytes at MI stage", "setting": "[3]; [4]", "value": 15}, {"measurement": "number of oocytes at MII stage", "setting": "[3]; [4]", "value": 12}, {"measurement": "number of antral follicles (>1 mm diameter)", "setting": "[3]; in four ovarian grafts", "value": 32}, {"measurement": "malignancy in xenografted human ovaries or hosts", "setting": "[3]; six months of transplantation, short term exposure", "value": "No malignancy was found"}, {"measurement": "increase in the number of antral follicles", "setting": "[3]; versus paired control grafts", "value": 4, "unit": "fold"}, {"measurement": "increase in the number of mature (MI & MII) oocytes", "setting": "[3]; versus paired control grafts", "value": 27, "unit": "fold"}]}
{"compound": "OO.OO.[K+].[OH-].[V].c1cnc2c(c1)ccc1cccnc12", "note": "[potassium bisperoxo (1,10-phenanthroline)oxovanadate (V)]", "values": [{"measurement": "IC50", "setting": "PTEN", "value": 38, "unit": "nM"}]}
{"compound": "dipotassium bisperoxo(5-hydroxypyridine-2-carboxyl)oxovanadate (V)", "values": [{"measurement": "IC50", "setting": "PTEN", "value": 14, "unit": "nM"}]}
{"compound": "monoperoxo(picolinato)oxovanadate(V)", "values": [{"measurement": "IC50", "setting": "PTP", "value": 18000, "unit": "nM"}]}
{"compound": "potassium bisperoxo(bipyridine)oxovanadate (V)", "values": [{"measurement": "IC50", "setting": "PTEN", "value": 18, "unit": "nM"}]}
